This assay has as its target T1, GPR84 (Homo sapiens, UniProt Q9NQS5).
T1 construct: expressed in transfected cells; membranes used
Description: GTPγS binding assay (GPR84). It is filed as biochemical. Conditions: membranes from stable cell line over expressing GPR84; 3,3′ di indolylmethane at EC80. The procedure:
1.1. Cell Based Assay: GTp-γS Binding Assay.
The following assay can be used for determination of GPR84 activation.
The assay is performed in a 96 well plate where the following reagents are added. […] In a last step, 30 μL of a mixture consisting of membranes-GTPγS-SpA beads is added [mixture consists of 20 μg/well membranes derived from stable cell line over expressing GPR84 (membranes are pre-incubated with 0.1 μM GDP for 15 min at 4° C.), 0.1 nM [^35S]GTPγS (Perkin Elmer, NEG030) and 0.5 mg/well PVT-WGA SpA beads (Perkin Elmer, RPNQ0001)]. All components are diluted in assay buffer containing 20 mM HEPES pH 7.4; 5 mM MgCl2; 250 mM NaCl; 0.05% BSA; 75 ug/mL saponin. Reactions are incubated for 90 min at room temperature followed by centrifugation at 2000 rpm during 15 min. Plates are read on a Topcount reader (Perkin Elmer) immediately after centrifugation (readout time, 1 min/well).
T1 sequence (Q9NQS5 whole entry): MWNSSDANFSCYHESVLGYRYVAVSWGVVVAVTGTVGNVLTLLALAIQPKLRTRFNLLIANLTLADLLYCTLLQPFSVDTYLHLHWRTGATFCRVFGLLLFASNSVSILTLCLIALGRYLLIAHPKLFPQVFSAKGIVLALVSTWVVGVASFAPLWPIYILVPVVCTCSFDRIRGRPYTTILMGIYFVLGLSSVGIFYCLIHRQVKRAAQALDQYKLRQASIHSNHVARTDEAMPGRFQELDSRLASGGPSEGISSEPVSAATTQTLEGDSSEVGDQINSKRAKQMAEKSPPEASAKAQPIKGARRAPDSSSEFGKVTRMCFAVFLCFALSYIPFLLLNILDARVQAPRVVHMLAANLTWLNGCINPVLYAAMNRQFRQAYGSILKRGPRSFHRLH
As to `C=CCOc1ccc2c(c1)CCn1c-2cc(OCC2COCCO2)nc1=O` (stereo not shown) [Compound 1, 9-allyloxy-2-(-1-[1,4]dioxan-2-ylmethoxy)-6,7-dihydro-pyrimido[6,1-a]isoquinolin-4-one], the IC50 lay within 101 to 500 nM.
Under `O=c1nc(OCC2COCCO2)cc2n1CCc1cc(-c3ccncc3)ccc1-2` (stereo not shown) [Compound 3, 2-([1,4]dioxan-2-ylmethoxy)-9-pyridin-4-yl-6,7-dihydro-pyrimido[6,1-a]isoquinolin-4-one] stands 501 to 1000 nM; under `N#Cc1cccc(-c2ccc3c(c2)CCn2c-3cc(OCC3COCCO3)nc2=O)c1` (stereo not shown) [Compound 5, 3-[2-([1,4]dioxan-2-ylmethoxy)-4-oxo-6,7-dihydro-4H-pyrimido[6,1-a]isoquinolin-9-yl]-benzonitrile], 501 to 1000 nM.
Molecule `N#Cc1ccc(-c2ccc3c(c2)CCn2c-3cc(OCC3COCCO3)nc2=O)cc1` (stereo not shown) [Compound 6, 4-[2-([1,4]dioxan-2-ylmethoxy)-4-oxo-6,7-dihydro-4H-pyrimido[6,1-a]isoquinolin-9-yl]-benzonitrile] registered an IC50 of 101 to 500 nM.
Under `NC(=O)c1cc(-c2ccc3c(c2)CCn2c-3cc(OCC3COCCO3)nc2=O)ccc1F` (stereo not shown) [Compound 28, 5-[2-([1,4]dioxan-2-ylmethoxy)-4-oxo-6,7-dihydro-4H-pyrimido[6,1-a]isoquinolin-9-yl]-2-fluoro-benzamide] stands 501 to 1000 nM.
In the case of `COc1cccc(-c2ccc3c(c2)CCn2c-3cc(OCC3COCCO3)nc2=O)c1` (stereo not shown) [Compound 43, 2-([1,4]dioxan-2-ylmethoxy)-9-(3-methoxy-phenyl)-6,7-dihydro-pyrimido[6,1-a]isoquinolin-4-one] it was 101 to 500 nM.
Under `O=c1nc(OCC2COCCO2)cc2n1CCc1cc(C#CCCO)ccc1-2` (stereo not shown) [Compound 45, 2-([1,4]dioxan-2-ylmethoxy)-9-(4-hydroxy-but-1-ynyl)-6,7-dihydro-pyrimido[6,1-a]isoquinolin-4-one] stands 501 to 1000 nM; under `NC(=O)c1ccc(F)c(-c2ccc3c(c2)CCn2c-3cc(OCC3COCCO3)nc2=O)c1` (stereo not shown) [Compound 50, 3-[2-([1,4]dioxan-2-ylmethoxy)-4-oxo-6,7-dihydro-4H-pyrimido[6,1-a]isoquinolin-9-yl]-4-fluoro-benzamide], 101 to 500 nM; under `NC(=O)c1cc(F)cc(-c2ccc3c(c2)CCn2c-3cc(OCC3COCCO3)nc2=O)c1` (stereo not shown) [Compound 51, 3-[2-([1,4]dioxan-2-ylmethoxy)-4-oxo-6,7-dihydro-4H-pyrimido[6,1-a]isoquinolin-9-yl]-5-fluoro-benzamide], 101 to 500 nM.
Turning to `O=c1nc(OCC2COCCO2)cc2n1CCc1cc(C#Cc3ccncc3)ccc1-2` (stereo not shown) [Compound 53, 2-([1,4]dioxan-2-ylmethoxy)-9-pyridin-4-ylethynyl-6,7-dihydro-pyrimido[6,1-a]isoquinolin-4-one], the IC50 was in the range of 101 to 500 nM.
Under `Cc1cc(COc2ccc3c(c2)CCn2c-3cc(OCC3COCCO3)nc2=O)on1` (stereo not shown) [Compound 54, 2-([1,4]dioxan-2-ylmethoxy)-9-(3-methyl-isoxazol-5-ylmethoxy)-6,7-dihydro-pyrimido[6,1-a]isoquinolin-4-one] stands 101 to 500 nM.
Under `CC(C)(O)C#Cc1ccc2c(c1)CCn1c-2cc(OCC2COCCO2)nc1=O` (stereo not shown) [Compound 55, 2-([1,4]dioxan-2-ylmethoxy)-9-(3-hydroxy-3-methyl-but-1-ynyl)-6,7-dihydro-pyrimido[6,6,1-a]isoquinolin-4-one] stands above 1000 nM.
Under `O=c1nc(OCC2COCCO2)cc2n1CCc1cc(C3=CCOCC3)ccc1-2` (stereo not shown) [Compound 58, 9-(3,6-dihydro-2H-pyran-4-yl)-2-([1,4]dioxan-2-ylmethoxy)-6,7-dihydro-pyrimido[6,1-a]isoquinolin-4-one] stands 101 to 500 nM; under `N#Cc1ccc(-c2ccc3c(c2)CCn2c-3cc(OCC3COCCO3)nc2=O)cn1` (stereo not shown) [Compound 59, 5-[2-([1,4]dioxan-2-ylmethoxy)-4-oxo-6,7-dihydro-4H-pyrimido[6,1-a]isoquinolin-9-yl]-pyridine-2-carbonitrile], 501 to 1000 nM.
As for `CCOc1ccc(-c2ccc3c(c2)CCn2c-3cc(OCC3COCCO3)nc2=O)cn1` (stereo not shown) [Compound 61, 2-([1,4]dioxan-2-ylmethoxy)-9-(6-ethoxy-pyridin-3-yl)-6,7-dihydro-pyrimido[6,1-a]isoquinolin-4-one], the IC50 was in the range of 0.01 to 100 nM.
`COc1nccc(-c2ccc3c(c2)CCn2c-3cc(OCC3COCCO3)nc2=O)c1Cl` (stereo not shown) [Compound 64, 9-(3-chloro-2-methoxy-pyridin-4-yl)-2-([1,4]dioxan-2-ylmethoxy)-6,7-dihydro-pyrimido[6,1-a]isoquinolin-4-one] gave an IC50 of 101 to 500 nM.
In the case of `Cc1cc(-c2ccc3c(c2)CCn2c-3cc(OCC3COCCO3)nc2=O)ccn1` (stereo not shown) [Compound 65, 2-([1,4]dioxan-2-ylmethoxy)-9-(2-methyl-pyridin-4-yl)-6,7-dihydro-pyrimido[6,1-a]isoquinolin-4-one] it was 501 to 1000 nM.
Under `N#Cc1ccncc1-c1ccc2c(c1)CCn1c-2cc(OCC2COCCO2)nc1=O` (stereo not shown) [Compound 66, 3-[2-([1,4]dioxan-2-ylmethoxy)-4-oxo-6,7-dihydro-4H-pyrimido[6,1-a]isoquinolin-9-yl]-isonicotinonitrile] stands 101 to 500 nM.
In the case of `COc1ccc(OC)c(-c2ccc3c(c2)CCn2c-3cc(OCC3COCCO3)nc2=O)c1` (stereo not shown) [Compound 67, 9-(2,5-dimethoxy-phenyl)-2-([1,4]dioxan-2-ylmethoxy)-6,7-dihydro-pyrimido[6,1-a]isoquinolin-4-one], the IC50 lay within 0.01 to 100 nM.
Under `COc1ccc(-c2ccc3c(c2)CCn2c-3cc(OCC3COCCO3)nc2=O)c(OC)n1` (stereo not shown) [Compound 70, 9-(2,6-dimethoxy-pyridin-3-yl)-2-([1,4]dioxan-2-ylmethoxy)-6,7-dihydro-pyrimido[6,1-a]isoquinolin-4-one] stands 0.01 to 100 nM.
In the case of `O=c1nc(OCC2COCCO2)cc2n1CCc1cc(-c3ccc(N4CCCC4)nc3)ccc1-2` (stereo not shown) [Compound 74, 2-([1,4]dioxan-2-ylmethoxy)-9-(6-pyrrolidin-1-yl-pyridin-3-yl)-6,7-dihydro-pyrimido[6,1-a]isoquinolin-4-one] it was 0.01 to 100 nM.
`O=c1nc(OCC2COCCO2)cc2n1CCc1cc(OCc3ncc(-c4ccccc4)o3)ccc1-2` (stereo not shown) [Compound 75, 2-([1,4]dioxan-2-ylmethoxy)-9-(5-phenyl-oxazol-2-ylmethoxy)-6,7-dihydro-pyrimido[6,1-a]isoquinolin-4-one] yielded an IC50 of 0.01 to 100 nM.
In the case of `CC(C)(C)c1cnc(COc2ccc3c(c2)CCn2c-3cc(OCC3COCCO3)nc2=O)o1` (stereo not shown) [Compound 76, 9-(5-tert-butyl-oxazol-2-ylmethoxy)-2-([1,4]dioxan-2-ylmethoxy)-6,7-dihydro-pyrimido[6,1-a]isoquinolin-4-one] it was 0.01 to 100 nM; in that of `CCc1nc(COc2ccc3c(c2)CCn2c-3cc(OCC3COCCO3)nc2=O)no1` (stereo not shown) [Compound 78, 2-([1,4]dioxan-2-ylmethoxy)-9-(5-ethyl-[1,2,4]oxadiazol-3-ylmethoxy)-6,7-dihydro-pyrimido[6,1-a]isoquinolin-4-one], 0.01 to 100 nM.
In the case of `Cc1nc(COc2ccc3c(c2)CCn2c-3cc(OCC3COCCO3)nc2=O)no1` (stereo not shown) [Compound 79, 2-([1,4]dioxan-2-ylmethoxy)-9-(5-methyl-[1,2,4]oxadiazol-3-ylmethoxy)-6,7-dihydro-pyrimido[6,1-a]isoquinolin-4-one] it was 101 to 500 nM.

The values above are taken from patent US10047083B2, “Dihydropyrimidinoisoquinolinones and pharmaceutical compositions thereof for the treatment of inflammatory disorders” (GALAPAGOS NV, priority 2011, dated 2018).
